Test systems include SW-620 colon; CAKI-1 renal; HCT-116 colon; SK-MEL-2 melanoma; SF-268 CNS; TK-10 renal; BT-549 breast; NCI-H23 lung; ACHN renal; NCI-H226 lung; UACC-257 melanoma; 786-0 renal; DU-145 prostate; T-47D breast; LOX IMVI melanoma; PC-3 prostate; K-562 leukemia.
What all share (experiment): DTP human tumour cell line panel, 48 h

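Briefly, cells in 96-well plates were exposed to five compound concentrations for 48 h, and endpoints were estimated by linear interpolation. Here, GI50 denotes the concentration required for 50% inhibition of growth. The concentration for full growth arrest is given as TGI.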

Take `CC(C)(C)[Si](C)(C)OCCOCn1cc(F)c(=O)[nH]c1=O`: the TGI in the assay on SW-620 colon, in the assay with CAKI-1 renal, with HCT-116 colon, in the assay with SK-MEL-2 melanoma, with SF-268 CNS and in the assay with TK-10 renal was greater than 100 µM each time. In addition, the TGI in the assay with BT-549 breast, in the assay on NCI-H23 lung, in the assay on ACHN renal, in the assay on NCI-H226 lung, with UACC-257 melanoma and with 786-0 renal was greater than 100 µM throughout. The TGI with DU-145 prostate, in the assay on T-47D breast, with LOX IMVI melanoma, in the assay with PC-3 prostate and in the assay on K-562 leukemia was greater than 100 µM in each case.

Regarding `CCOc1cc2c(cc1O)/C(=N/NS(=O)(=O)c1ccc(C)cc1)C[C@@H]1[C@@H]2CC[C@]2(C)[C@@H](O)CC[C@@H]12`, the TGI in the assay with SW-620 colon, in the assay with CAKI-1 renal, in the assay with HCT-116 colon, in the assay with SK-MEL-2 melanoma, in the assay on SF-268 CNS and in the assay on TK-10 renal was greater than 100 µM each time. Further, the total growth inhibition concentration (TGI) in the assay with BT-549 breast was greater than 100 µM; in the assay with NCI-H23 lung, greater than 100 µM; in the assay on ACHN renal it was 81.2 µM; with NCI-H226 lung, 68.7 µM; with UACC-257 melanoma, greater than 100 µM; with 786-0 renal it was greater than 100 µM. For the same compound, the TGI in the assay with DU-145 prostate, in the assay on T-47D breast, with LOX IMVI melanoma, in the assay on PC-3 prostate and with K-562 leukemia was greater than 100 µM throughout. The GI50 with HCT-116 colon was 6.67 µM; in the assay on DU-145 prostate it was 14.9 µM.

As to `O=C(/C=C/c1ccccc1)CSc1nc2ccc(I)cc2c(=O)n1Cc1ccccc1`, the TGI is greater than 100 µM in the assay with SW-620 colon; 3.74 µM in the assay with CAKI-1 renal; greater than 100 µM in the assay with HCT-116 colon; 99 µM in the assay with SK-MEL-2 melanoma; 51.9 µM in the assay on SF-268 CNS; greater than 84.6 µM with TK-10 renal. The TGI in the assay on BT-549 breast was greater than 100 µM; with NCI-H23 lung, greater than 100 µM; in the assay on ACHN renal, greater than 100 µM; in the assay on NCI-H226 lung, greater than 84.4 µM; in the assay on UACC-257 melanoma, greater than 100 µM; in the assay with 786-0 renal, 35.9 µM. In addition, the TGI in the assay on DU-145 prostate is greater than 100 µM; with T-47D breast, greater than 100 µM; in the assay on LOX IMVI melanoma, greater than 100 µM; in the assay with PC-3 prostate it was greater than 96.4 µM; with K-562 leukemia, greater than 100 µM.

On to `Clc1nc(NCCc2ccccc2)c2ncn(-c3ccccc3)c2n1`, for which the TGI was greater than 100 µM with SW-620 colon; 34 µM in the assay with CAKI-1 renal; 56.4 µM in the assay on HCT-116 colon; 19.9 µM in the assay with SK-MEL-2 melanoma; greater than 100 µM in the assay with SF-268 CNS; 71.2 µM in the assay with TK-10 renal. The TGI in the assay on BT-549 breast came out at 60 µM; with NCI-H23 lung, 77.3 µM; in the assay on ACHN renal, 92.7 µM; in the assay with NCI-H226 lung, 58.9 µM; with UACC-257 melanoma, 34.6 µM; with 786-0 renal, 31.4 µM. In addition, the TGI in the assay with DU-145 prostate turned out to be 83.4 µM; in the assay with T-47D breast it was 98.2 µM; in the assay with LOX IMVI melanoma, 43.1 µM; in the assay with PC-3 prostate, 47.8 µM; with K-562 leukemia, 70.5 µM.

For the compound `CCOC(=O)/C=C(\C(=O)OCC)n1ccc(=O)n(CC(=O)OCC)c1=O`, the GI50 in the assay on SW-620 colon was 1.42 µM. Also, the TGI with SW-620 colon came to 2.72 µM; in the assay on CAKI-1 renal, 1.68 µM; in the assay with HCT-116 colon, 3.44 µM; in the assay with SK-MEL-2 melanoma, 29.1 µM; in the assay with SF-268 CNS, 41.1 µM; with TK-10 renal it was 6.04 µM. For the same compound, the TGI in the assay on BT-549 breast is 29.1 µM; in the assay on NCI-H23 lung, 28.1 µM; in the assay with ACHN renal it was 3.29 µM; in the assay on NCI-H226 lung, 12.8 µM; in the assay with UACC-257 melanoma, 24.2 µM; in the assay on 786-0 renal, 4.1 µM. In addition, the TGI worked out at 31.1 µM in the assay with DU-145 prostate; 7.39 µM in the assay on T-47D breast; 5.23 µM in the assay with LOX IMVI melanoma; 11.2 µM in the assay with PC-3 prostate; 4 µM in the assay with K-562 leukemia.

Consider `CC(C)C/C=C/C1=NN(c2cccc(S(=O)(=O)O)c2)C2(C1)SCC(=O)N2c1nc2ccccc2s1` (centres undefined), for which the TGI in the assay on SW-620 colon, with CAKI-1 renal, in the assay on HCT-116 colon, in the assay on SK-MEL-2 melanoma, in the assay with SF-268 CNS and in the assay on TK-10 renal was greater than 100 µM each time. For the same compound, the TGI was greater than 100 µM in the assay with BT-549 breast; greater than 100 µM in the assay on NCI-H23 lung; greater than 100 µM with ACHN renal; greater than 100 µM in the assay with NCI-H226 lung; greater than 100 µM in the assay with UACC-257 melanoma; 46.3 µM in the assay on 786-0 renal. Further, the TGI in the assay with DU-145 prostate was greater than 100 µM; with T-47D breast it was 47.2 µM; in the assay on LOX IMVI melanoma, 70 µM; in the assay with PC-3 prostate it was greater than 100 µM; with K-562 leukemia, greater than 100 µM.

`O=C1Nc2ccccc2/C1=C/c1c(Cl)[nH]c2ccc(O)cc12`: the concentration for total growth inhibition (TGI) was 20.7 µM in the assay with SW-620 colon; 36 µM in the assay with CAKI-1 renal; 19.4 µM in the assay with HCT-116 colon; 12.7 µM in the assay on SK-MEL-2 melanoma; greater than 43.7 µM in the assay on SF-268 CNS; 37.1 µM in the assay on TK-10 renal. Besides, the total growth inhibition concentration (TGI) in the assay on BT-549 breast worked out at 18.9 µM; in the assay with NCI-H23 lung it was 13.8 µM; with ACHN renal, 31.4 µM; in the assay with NCI-H226 lung, 5.12 µM; in the assay on UACC-257 melanoma, 22.6 µM; in the assay with 786-0 renal, 25.9 µM. Besides, the TGI in the assay with DU-145 prostate is 6.69 µM; in the assay with T-47D breast it was 28.3 µM; in the assay on LOX IMVI melanoma, 27.8 µM; in the assay with PC-3 prostate, 16.3 µM; in the assay with K-562 leukemia, 17.1 µM.

As for `CCOC(=O)C1(C/C=C\CBr)CCCCCCCCCCC1=O` (centres undefined), the TGI was 30.1 µM in the assay on SW-620 colon; 27.2 µM in the assay on CAKI-1 renal; greater than 54.2 µM with HCT-116 colon; 36.5 µM in the assay with SK-MEL-2 melanoma; 27.6 µM with SF-268 CNS; 22.8 µM with TK-10 renal. For the same compound, the TGI with BT-549 breast is 31.7 µM; with NCI-H23 lung, 26.2 µM; in the assay on ACHN renal, 32 µM; with NCI-H226 lung, 16.6 µM; in the assay with UACC-257 melanoma, 31.3 µM; with 786-0 renal it was greater than 53 µM. The total growth inhibition concentration (TGI) in the assay with DU-145 prostate came out at 31.9 µM; in the assay with T-47D breast it was 29.7 µM; in the assay with LOX IMVI melanoma, 1.66 µM; in the assay on PC-3 prostate it was 25.1 µM; with K-562 leukemia, 20.2 µM.

For the compound `Nc1nc(N)c2[nH]cnc2n1` (tested in a mixture with another compound), the TGI in the assay with SW-620 colon is greater than 100 µM; with CAKI-1 renal it was greater than 100 µM; in the assay with HCT-116 colon, 41.8 µM; in the assay on SK-MEL-2 melanoma, 77.5 µM; in the assay with SF-268 CNS, greater than 100 µM; with TK-10 renal, 80.7 µM. Moreover, the TGI in the assay on BT-549 breast is greater than 100 µM; with NCI-H23 lung, 77.5 µM; with ACHN renal, 48.6 µM; in the assay on NCI-H226 lung, greater than 100 µM; in the assay on UACC-257 melanoma, 55.2 µM; in the assay with 786-0 renal it was greater than 100 µM. Moreover, the TGI in the assay with DU-145 prostate is greater than 100 µM; with T-47D breast, 40 µM; with LOX IMVI melanoma, greater than 100 µM; in the assay on PC-3 prostate, 94.6 µM; in the assay with K-562 leukemia, greater than 100 µM.

With `O=c1[nH]c(-c2ccccc2)nc2c1sc1nc3ccccc3n12`, the TGI in the assay with SW-620 colon, with CAKI-1 renal, in the assay with HCT-116 colon, with SK-MEL-2 melanoma, in the assay on SF-268 CNS and with TK-10 renal was greater than 100 µM each time. The TGI in the assay on BT-549 breast, in the assay with NCI-H23 lung, in the assay with ACHN renal, with NCI-H226 lung, in the assay with UACC-257 melanoma and with 786-0 renal was greater than 100 µM each time. For the same compound, the TGI in the assay on DU-145 prostate, in the assay with T-47D breast, in the assay with LOX IMVI melanoma, in the assay on PC-3 prostate and in the assay with K-562 leukemia was greater than 100 µM each time.

With `COC(C)(C)CCc1[nH]c2ccccc2c1CC(=O)NCCc1cncn1C`, the TGI in the assay with SW-620 colon, in the assay with CAKI-1 renal, with HCT-116 colon, in the assay with SK-MEL-2 melanoma, in the assay on SF-268 CNS and with TK-10 renal was greater than 100 µM throughout. In addition, the TGI in the assay on BT-549 breast, in the assay with NCI-H23 lung, in the assay on ACHN renal, in the assay on NCI-H226 lung, in the assay with UACC-257 melanoma and in the assay with 786-0 renal was greater than 100 µM throughout. For the same compound, the TGI in the assay with DU-145 prostate, with T-47D breast, in the assay with LOX IMVI melanoma, in the assay with PC-3 prostate and in the assay with K-562 leukemia was greater than 100 µM in each case.

Take `O=C1C(=C(I)I)c2ccccc2-c2ccccc21`: the TGI worked out at 8.13 µM in the assay with SW-620 colon; 7.12 µM in the assay with CAKI-1 renal; 6.55 µM in the assay on HCT-116 colon; 19.7 µM in the assay with SK-MEL-2 melanoma; 20.4 µM with SF-268 CNS; 3.86 µM in the assay with TK-10 renal. Also, the TGI turned out to be 15.5 µM with BT-549 breast; 16.3 µM in the assay with NCI-H23 lung; 5.59 µM with ACHN renal; 36.4 µM in the assay on NCI-H226 lung; 5.04 µM in the assay on UACC-257 melanoma; 4.33 µM in the assay on 786-0 renal. For the same compound, the TGI with DU-145 prostate was 11.2 µM; in the assay with T-47D breast, greater than 100 µM; in the assay with LOX IMVI melanoma it was 5.26 µM; in the assay with PC-3 prostate, 13.5 µM; in the assay with K-562 leukemia it was greater than 34.9 µM.

With `c1ccc2cc(CNCCOCCOCCNCc3ccc4ccccc4c3)ccc2c1`, the TGI in the assay on SW-620 colon is 4.62 µM; in the assay with CAKI-1 renal, 3.68 µM; with HCT-116 colon, 3.08 µM; in the assay on SK-MEL-2 melanoma, 3.65 µM; in the assay with SF-268 CNS it was 4.43 µM; with TK-10 renal, 3.04 µM. The TGI is 3.3 µM in the assay on BT-549 breast; 4 µM with NCI-H23 lung; 3.26 µM in the assay with ACHN renal; 9.9 µM in the assay on NCI-H226 lung; 2.96 µM in the assay on UACC-257 melanoma; 2.97 µM in the assay with 786-0 renal. Further, the TGI in the assay with DU-145 prostate was found to be 3.37 µM; in the assay with T-47D breast it was 4.95 µM; with LOX IMVI melanoma it was 3.06 µM; with PC-3 prostate, 5.3 µM; in the assay with K-562 leukemia, 2.79 µM.
